Experimental data as given in PubChem BioAssay (NCI).
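Interpolation was linear, between the two tested concentrations surrounding the appropriate level; five concentrations were tested over 48 hours in 96-well plates. The concentration for 50% growth inhibition is given as GI50. Definition used: TGI = concentration required for complete inhibition of growth.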

What was measured:
Assay in all cases: NCI tumour cell line growth inhibition, 48 h
[1] = system: SF-295 CNS
[2] = system: HCT-15 colon
[3] = system: UO-31 renal
[4] = system: SNB-19 CNS
[5] = system: HOP-62 NSCLC
[6] = system: SNB-75 CNS
[7] = system: EKVX NSCLC
[8] = system: K-562 leukemia
[9] = system: U251 CNS
[10] = system: COLO 205 colon
[11] = system: SR leukemia
[12] = system: SW-620 colon
[13] = system: HCC-2998 colon
[14] = system: BT-549 breast
[15] = system: NCI-H460 lung
[16] = system: 786-0 renal
[17] = system: HL-60(TB) leukemia
[18] = system: KM12 colon
[19] = system: PC-3 prostate
[20] = system: NCI-H522 lung
[21] = system: A549 NSCLC
[22] = system: SF-268 CNS
[23] = system: UACC-257 melanoma
[24] = system: SK-MEL-5 melanoma
[25] = system: A498 renal
[26] = system: SN12C renal
[27] = system: CAKI-1 renal
[28] = system: RPMI-8226 leukemia
[29] = system: OVCAR-5 ovarian
[30] = system: HT29 colon
[31] = system: M14 melanoma
[32] = system: SK-MEL-28 melanoma
[33] = system: T-47D breast
[34] = system: OVCAR-8 ovarian
[35] = system: DU-145 prostate
[36] = system: HS 578T breast
[37] = system: RXF 393 renal
[38] = system: NCI/ADR-RES ovarian
[39] = system: MDA-MB-231 breast
[40] = system: SK-OV-3 ovarian
[41] = system: MOLT-4 leukemia
[42] = system: MDA-MB-435
[43] = system: NCI-H23 lung
[44] = system: MALME-3M melanoma
[45] = system: IGROV1 ovarian
[46] = system: MCF7 breast
[47] = system: NCI-H226 lung
[48] = system: SF-539 CNS
[49] = system: OVCAR-4 ovarian
[50] = system: TK-10 renal
[51] = system: HCT-116 colon
[52] = system: CCRF-CEM leukemia
[53] = system: UACC-62 melanoma
[54] = system: ACHN renal
[55] = system: SK-MEL-2 melanoma
[56] = system: HOP-92 NSCLC

## CN(Cc1ccccc1)S(=O)(=O)/N=C1\NC(=O)NC1=C(Cl)Cl
[1]
  GI50: 3.51 µM
  TGI: 12.2 µM
[2]
  GI50: 1.52 µM
  TGI: 3.11 µM
[3]
  GI50: 2.45 µM
  TGI: 10.4 µM
[4]
  GI50: 2.23 µM
  TGI: 5.32 µM
[5]
  GI50: 3.01 µM
  TGI: 11.5 µM
[6]
  GI50: 2.04 µM
  TGI: 9.32 µM
[7]
  GI50: 1.84 µM
  TGI: 3.81 µM
[8]
  GI50: 1.04 µM
  TGI: > 100 µM
[9]
  GI50: 1.83 µM
  TGI: 3.53 µM
[10]
  GI50: 1.96 µM
  TGI: 3.98 µM
[11]
  GI50: 0.525 µM
  TGI: 11.5 µM
[12]
  GI50: 1.8 µM
  TGI: 3.55 µM
[13]
  GI50: 1.73 µM
  TGI: 3.3 µM
[14]
  GI50: 1.88 µM
  TGI: 3.47 µM
[15]
  GI50: 2.39 µM
  TGI: 5.68 µM
[16]
  GI50: 2.06 µM
  TGI: 4.6 µM
[17]
  GI50: 2.08 µM
  TGI: 5.35 µM
[18]
  GI50: 0.27 µM
  TGI: 0.744 µM
[19]
  GI50: 2.02 µM
  TGI: 4.39 µM
[20]
  GI50: 1.99 µM
  TGI: 4.31 µM
[21]
  GI50: 3.9 µM
  TGI: 16.8 µM
[22]
  GI50: 2.46 µM
  TGI: 7.02 µM
[23]
  GI50: 2.22 µM
  TGI: 5.29 µM
[24]
  GI50: 2.05 µM
  TGI: 4.27 µM
[25]
  GI50: 2.19 µM
  TGI: 6.31 µM
[26]
  GI50: 1.81 µM
  TGI: 3.38 µM
[27]
  GI50: 1.67 µM
  TGI: 3.12 µM
[28]
  GI50: 0.323 µM
  TGI: 1.9 µM
[29]
  GI50: 1.69 µM
  TGI: 3.17 µM
[30]
  GI50: 2.07 µM
  TGI: 4.72 µM
[31]
  GI50: 1.76 µM
  TGI: 3.51 µM
[32]
  GI50: 1.77 µM
  TGI: 3.29 µM
[33]
  GI50: 1.59 µM
  TGI: 21.8 µM
[34]
  GI50: 2.37 µM
  TGI: 6.26 µM
[35]
  GI50: 2.37 µM
  TGI: 5.34 µM
[36]
  GI50: 2.82 µM
  TGI: 8.87 µM
[37]
  GI50: 1.8 µM
  TGI: 3.51 µM
[38]
  GI50: 2.1 µM
  TGI: 4.96 µM
[39]
  GI50: 1.79 µM
  TGI: 3.3 µM
[40]
  GI50: 15.7 µM
  TGI: 29.2 µM
[41]
  GI50: 2.52 µM
  TGI: 7.03 µM
[42]
  GI50: 1.8 µM
  TGI: 3.45 µM
[43]
  GI50: 1.79 µM
  TGI: 3.55 µM
[44]
  GI50: 1.79 µM
  TGI: 3.48 µM
[45]
  GI50: 1.88 µM
  TGI: 3.75 µM
[46]
  GI50: 0.338 µM
  TGI: 13.5 µM
[47]
  GI50: 2.21 µM
  TGI: 5.42 µM
[48]
  GI50: 1.74 µM
  TGI: 3.25 µM
[49]
  GI50: 1.84 µM
  TGI: 3.64 µM
[50]
  GI50: 2.47 µM
  TGI: 29.9 µM
[51]
  GI50: 1.94 µM
  TGI: 3.81 µM
[52]
  GI50: 1.94 µM
  TGI: 5.08 µM
[53]
  GI50: 1.73 µM
  TGI: 3.32 µM
[54]
  GI50: 1.77 µM
  TGI: 3.19 µM
[55]
  GI50: 2.76 µM
  TGI: 7.84 µM
[56]
  GI50: 1.74 µM
  TGI: 3.36 µM
